Results published in the supplement of paper PMC10307832.

The cell lines below were run with CC(C)(C)c1cc(NC(=O)Nc2ccc(-c3cn4c(n3)sc3cc(OCCN5CCOCC5)ccc34)cc2)no1 [Quizartinib] + Cc1nc(NC(=O)N2CCC[C@H]2C(N)=O)sc1-c1ccnc(C(C)(C)C(F)(F)F)c1 [Alpelisib] (partner 2 µM) (assay: relative viability (nuclei count vs DMSO), 5 days (fraction); higher = more cells survive). Settings: first compound 0.001 µM.
Summary of the method: (§1)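 Nuclei were stained with Hoechst during a one-step fixation (final 0.05% Triton X-100, 1% formaldehyde, 1 ug/ml Hoechst) carried out 5 days after dosing, then counted on 4× images. The cells, lung cancer lines in 1536-well plates, had been dosed by pin tool the day after seeding with one drug alone or a fixed anchor-drug dose plus five library-drug doses (not always all listed) in √10 steps. Relative viability is the nuclei count in treated wells divided by that in vehicle wells, and each value is the median of duplicate plates.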

Row | Cell Line | relative viability
1 | HCC-15 | 0.833
2 | HARA | 0.485
3 | NCI-H1975 | 0.638
4 | NCI-H1944 | 0.691
5 | NCI-H2126 | 0.76
6 | EMC-BAC-2 | 0.695
7 | SK-LU-1 | 0.96
8 | NCI-H661 | 0.594
9 | NCI-H358 | 0.693
10 | CAL-12T | 1.03
11 | LK-2 | 1.14
12 | HOP-62 | 0.75
13 | PC-14 | 0.854
14 | NCI-H1993 | 0.668
15 | NCI-H2405 | 0.579
16 | NCI-H3122 | 0.567
17 | A-427 | 1.06

Same assay, conditions: first compound 0.003162 µM

Row | Cell Line | relative viability
18 | HCC-15 | 0.881
19 | HARA | 0.78
20 | NCI-H1975 | 0.521
21 | NCI-H1944 | 0.826
22 | NCI-H2126 | 0.726
23 | EMC-BAC-2 | 0.696
24 | SK-LU-1 | 0.876
25 | NCI-H661 | 0.708
26 | NCI-H358 | 0.89
27 | CAL-12T | 1.08
28 | LK-2 | 1.08
29 | HOP-62 | 0.706
30 | PC-14 | 0.903
31 | NCI-H1993 | 0.638
32 | NCI-H2405 | 0.748
33 | NCI-H3122 | 0.693
34 | A-427 | 1

Same assay, conditions: first compound 0.01 µM

Row | Cell Line | relative viability
35 | HCC-15 | 0.941
36 | HARA | 0.893
37 | NCI-H1975 | 0.655
38 | NCI-H1944 | 0.898
39 | NCI-H2126 | 0.757
40 | EMC-BAC-2 | 0.762
41 | SK-LU-1 | 1.17
42 | NCI-H661 | 0.384
43 | NCI-H358 | 0.815
44 | CAL-12T | 1.29
45 | LK-2 | 1.04
46 | HOP-62 | 1.19
47 | PC-14 | 1.03
48 | NCI-H1993 | 0.614
49 | NCI-H2405 | 0.847
50 | NCI-H3122 | 1.01
51 | A-427 | 1.12

Same assay, conditions: first compound 0.03162 µM

Row | Cell Line | relative viability
52 | HCC-15 | 0.884
53 | HARA | 0.791
54 | NCI-H1975 | 0.545
55 | NCI-H1944 | 0.89
56 | NCI-H2126 | 0.774
57 | EMC-BAC-2 | 0.766
58 | SK-LU-1 | 0.982
59 | NCI-H661 | 0.565
60 | CAL-12T | 0.467
61 | LK-2 | 1.03
62 | HOP-62 | 1.26
63 | PC-14 | 0.877
64 | NCI-H1993 | 0.65
65 | NCI-H2405 | 0.733
66 | NCI-H3122 | 0.831
67 | A-427 | 1.06

Same assay, conditions: first compound 0.1 µM

Row | Cell Line | relative viability
68 | HCC-15 | 0.787
69 | HARA | 0.749
70 | NCI-H1975 | 0.585
71 | NCI-H1944 | 0.805
72 | NCI-H2126 | 0.753
73 | EMC-BAC-2 | 0.73
74 | SK-LU-1 | 0.81
75 | NCI-H661 | 0.905
76 | NCI-H358 | 0.753
77 | CAL-12T | 1.47
78 | LK-2 | 1.06
79 | HOP-62 | 0.907
80 | PC-14 | 0.89
81 | NCI-H1993 | 0.642
82 | NCI-H2405 | 0.978
83 | NCI-H3122 | 0.651
84 | A-427 | 1.04

These cell lines were tested with COCC[n+]1c2c(n(Cc3cnccn3)c1C)C(=O)c1ccccc1C2=O [YM155] + CCNC(=O)c1noc(-c2cc(C(C)C)c(O)cc2O)c1-c1ccc(CN2CCOCC2)cc1 [Luminespib] (partner 0.01 µM) in the same assay as above. Settings: first compound 0.002 µM.
Summary of the method: as §1

Row | Cell Line | relative viability
85 | HCC-15 | 0.361
86 | HARA | 0.683
87 | NCI-H1975 | 0.283
88 | NCI-H1944 | 0.688
89 | NCI-H2126 | 0.804
90 | EMC-BAC-2 | 1.19
91 | SK-LU-1 | 0.183
92 | NCI-H661 | 0.841
93 | NCI-H358 | 0.222
94 | CAL-12T | 0.362
95 | LK-2 | 0.249
96 | HOP-62 | 0.918
97 | PC-14 | 0.171
98 | NCI-H1993 | 0.722
99 | NCI-H2405 | 0.65
100 | NCI-H3122 | 0.0874
101 | A-427 | 0.895

Same assay, conditions: first compound 0.006325 µM

Row | Cell Line | relative viability
102 | HCC-15 | 0.369
103 | HARA | 0.906
104 | NCI-H1975 | 0.253
105 | NCI-H1944 | 0.637
106 | NCI-H2126 | 0.969
107 | EMC-BAC-2 | 1.11
108 | SK-LU-1 | 0.185
109 | NCI-H661 | 0.948
110 | NCI-H358 | 0.374
111 | CAL-12T | 0.766
112 | LK-2 | 0.165
113 | HOP-62 | 0.907
114 | PC-14 | 0.174
115 | NCI-H1993 | 0.695
116 | NCI-H2405 | 0.778
117 | NCI-H3122 | 0.123
118 | A-427 | 0.965

Same assay, conditions: first compound 0.02 µM

Row | Cell Line | relative viability
119 | HCC-15 | 0.311
120 | HARA | 0.95
121 | NCI-H1975 | 0.209
122 | NCI-H1944 | 0.81
123 | NCI-H2126 | 0.94
124 | EMC-BAC-2 | 1.12
125 | SK-LU-1 | 0.21
126 | NCI-H661 | 0.927
127 | NCI-H358 | 0.352
128 | CAL-12T | 0.414
129 | LK-2 | 0.21
130 | HOP-62 | 0.938
131 | PC-14 | 0.111
132 | NCI-H1993 | 0.444
133 | NCI-H2405 | 0.639
134 | NCI-H3122 | 0.0877
135 | A-427 | 0.85

Same assay, conditions: first compound 0.06325 µM

Row | Cell Line | relative viability
136 | HCC-15 | 0.161
137 | HARA | 0.686
138 | NCI-H1975 | 0.156
139 | NCI-H1944 | 1.16
140 | NCI-H2126 | 0.927
141 | EMC-BAC-2 | 0.982
142 | SK-LU-1 | 0.223
143 | NCI-H661 | 0.393
